Experimental findings from US20100284925A1, “Small Molecule Intervention for Obesity” (priority 2006, published 2010) are described below.

Test [1] can be described thus: Diet-induced obese (DIO) C57BL/6J (B6) mice. Type of test: in vivo. As for the experimental part: FIG. 16. Effects of prieurianin in diet-induced obese C57Bl/6J mice. B6 mice were put on 60% kcal high fat diet for approximately 15 weeks and then divided into groups of 10 and were then treated with either 1 (green) or 3 (brown) mg/kg of prieurianin daily intraperitoneally for three weeks compared to untreated (blue) or vehicle-treated (red) controls.
FIG. 16A. Average weight changes of mice treated with prieurianin compared to controls through three weeks of treatment.
FIG. 16B. Average food consumption in B6 mice treated with prieurianin as in FIG. 16A.
FIG. 16C. Average weight changes in B6 mice treated with prieurianin on an “on-off” cyclical schedule for a total of 4 cycles described in the text. Results are the means S.E. of 10 animals per group, and the 3 mg/kg group with 20 mice.
The B6 mice were fed a 60% kcal high fat diet for approximately 15 weeks to gain weight and then treated with either 1 or 3 mg/kg of prieurianin intraperitoneally daily for 3 weeks. Mice continued to have access to the 60% kcal diet ad libitum during treatment.
To circumvent the problem of drug induced tolerance, a new protocol was developed where prieurianin treatment was stopped with the DIO mice, and the mice continued to be maintained on the high fat 60% kcal diet. Four weeks later, the mice were treated again with the following protocol: either 3 mg/kg of prieurianin for 5 days and followed by 5 days of drug holiday (no treatment), with the treatment repeated for 3 more cycles; or 5 mg/kg of prieurianin for 3 days and followed by 5 days of drug holiday, with the treatment repeated for 3 more cycles.

A further test deals with NFκB. In words: NFκB-response element luciferase reporter in L1 preadipocytes. Type of test: cell-based. The settings on record: prieurianin 2 μM.
A short description of test [2]: Body weight, food intake, serum parameters and adiposity in normal C57BL/6J mice. Type of test: in vivo. As for the experimental part:
FIG. 4. Effects of prieurianin on blood insulin, glucose and NEFA levels. Normal and ob/ob mice were treated with 5 mg/kg of prieurianin and serum samples were then collected for (FIG. 4A) insulin; (FIG. 4B) glucose; and (FIG. 4C) non-esterified fatty acid (NEFA) profiling. Results are means of three animals per group for each treatment. Blue column, normal C57BL/6J; and red column, leptin-deficient ob/ob mice.
Prieurianin was administered intraperitoneally to 12-14 week-old normal C57BL/6J mice and the genetically leptin-deficient ob/ob mice (2 or 5 mg/kg) twice a week for two weeks. Controls received equivolume injections of drug vehicle. Body weight and food intake were measured every three days, and blood samples were collected at the end of the experiment.
Obesity contributes to hypertension, high serum cholesterol, low HDL cholesterol, and hyperglycemia, thus potentially leading to higher risk of cardiovascular disease. Abdominal obesity especially correlates with metabolic risk factors. The leptin-deficient ob/ob mice are hyperlipidemic, and hyperglycemic. To test whether prieurianin altered the metabolic or endocrinological parameters in addition to appetite, the serum lipid profile, insulin and glucose levels were measured.
To further examine the effects of prieurianin on the adiposity of the normal C57BL/6J and the ob/ob mice, we measured their visceral and subcutaneous body fat.

For the next test, the system named is PLTP promoter. In words: PLTP-promoter luciferase reporter in HepG2 and transgenic HepG2/PLTPpLuc cells. Type of test: cell-based, human. The following applies: luciferase reporter, HepG2 or HepG2/PLTPpLuc cells. The source says: FIG. 2A. A 1.5 Kb PLTP promoter fused to a luciferase reporter was transactivated by topotecan dose-dependently.
FIG. 2B. Activation of PLTP promoter by topotecan in HepG2 transgenic cells containing the PLTP-promoter luciferase reporter gene fused to the neomycin selectable marker cassette and stably transfected into HepG2 cells to generate the transgenic line (Top panel). Dose-dependent induction of PLTP promoter by topotecan (Bottom panel). Results are the means S.E. of three experiments after normalization with Renilla luciferase.
FIG. 3A. Dose-dependent transactivation of the PLTP promoter by prieurianin in the HepG2 transgenic cells. Results are the means S.E. of three experiments after normalization with Renilla luciferase.
FIG. 3B. […] 1, Control; 2. […] Results are the means±S.E. of triplicate experiments.
FIG. 11. Transactivation of PLTP promoter by cytotoxic and non-cytotoxic drugs. Survey of transactivation of the PLTP promoter by various cytotoxic and non-cytotoxic drugs in the HepG2 transgenic cells was conducted. Results are the means S.E. of three experiments.
FIG. 12. Effects of trichostatin A (TSA) on transactivation of PLTP promoter by prieurianin. Dose response activation of PLTP promoter by prieurianin either in the presence or the absence of 200 nM TSA. Results are the means S.E. of three experiments.
To determine whether non-cytotoxic small molecules could induce PLTP expression, the inventor herein subcloned the PLTP-promoter luciferase reporter into a vector containing a neomycin (G418)-resistance selectable marker and generated a transgenic HepG2 cell line, which harbors the PLTP-promoter luciferase reporter, by stable gene transfection and selection with G418.
The transgenic cells were then screened with a library of small molecules derived from natural products.

The test system of another test is adiponectin. In words: Adiponectin release into conditioned media (Western blot). The class given is cell-based. As for the experimental part:
FIG. 10. Release of adiponectin and PLTP by preadipocytes and adipocytes, and in serum of normal mice. Preadipocytes (B and D) were treated with 2 μM of prieurianin and media collected after 36 hrs for Western blot analysis of either adiponectin (A and B) or PLTP (C and D). Alternatively, five days following differentiation, conditioned media of adipocyets (A and C) were collected for Western analysis. E. Serum of normal C57BL/6J mice given prieurianin or topotecan (0, 2, 5, and 10 mg/kg) was analyzed by Western blot for PLTP.
Adipose tissue contains various types of cells including preadipocytes and adipocytes. Also, preadipocytes secrete factors involved in their own differentiation. Once differentiated, the mature adipocytes acquire the ability to communicate distally with other organs including brain, liver, and skeletal muscle and locally with other cells such as preadipocytes, endothelial cells and monocytes/macrophages by secreting leptin and adiponectin. In addition, anti-adipogenic cytokines prevent the release of adiponectin by preadipocytes. Thus, the production of adiponectin and PLTP by preadipocytes and adipocytes was assessed.

`C=C1[C@@H]([C@@]2(C)[C@@H](OC(C)=O)CC(=O)O[C@](C)(COC(C)=O)[C@@H]2C(=O)OC)[C@@H](OC=O)[C@H](OC(=O)[C@H](O)[C@H](C)CC)[C@@]2(C)[C@H](c3ccoc3)CC(=O)[C@]12O` [prieurianin]: the “decrease in food consumption” value in test [1] (1 or 3 mg/kg i.p. daily) is 70-80%. Further, in test [1] (1 or 3 mg/kg i.p. daily, within seven days of treatment), the “weight loss of total body weight” value was “up to 10%”. The “body weight course after attained weight loss” value in test [1] (daily treatment for 3 weeks) was “gradual increase in body weight after week two”. In addition, the “decrease in body weight” value in test [1] (on-off cyclical schedule, 3 or 5 mg/kg, 4 cycles) is recorded as “up to 20%”. In addition, in test [1] (on-off cyclical treatment protocol), the “reduction of food consumption” value is “approximately 40%”. Also, the “NFκB-response element mediated transcription” value in the test with NFκB is recorded as “induces transactivation from the NFκB-response element mediated transcription”. Besides, in test [2] (normal C57BL/6J mice), the food intake entry is “reduced food intake”, the glucose levels entry is given as “did not alter the insulin or the glucose levels significantly”, the insulin levels result is “did not alter the insulin or the glucose levels significantly” and the “serum PLTP activity” value is reported as “increase in serum PLTP activity”. Besides, the body weight entry in test [2] (normal C57BL/6J mice, 2 or 5 mg/kg i.p. twice a week, two weeks) was “modest body weight loss”. Moreover, the percent body fat result in test [2] (normal C57BL/6J mice, any dose) is recorded as “not significantly altered”. Besides, in test [2] (normal mice), the NEFA levels entry is reported as “decrease in NEFA levels” and the leptin levels entry is “decrease in leptin levels”. Further, in test [2] (normal mice, serum), the HDL levels entry is “remained relatively unchanged”, the total cholesterol level entry is listed as “remained relatively unchanged” and the triglyceride levels entry is listed as “no significant changes”. The “transactivation of PLTP promoter” value in the test on PLTP promoter is “exhibited the strongest transactivation of the PLTP promoter, and showed induction of PLTP in a dose-dependent manner”. Further, the “adiponectin release by preadipocytes” value with adiponectin (NIH-3T3/L1 preadipocytes, approximately 36 hrs after treatment) is recorded as “inhibition of adiponectin release”. For the same molecule, the “adiponectin production and release in differentiated adipocytes” value in the test with adiponectin (differentiated adipocytes) was “induced the production and release of high molecular weight form, as well as a modest increase in the secretion of total adiponectin”.
